Where two headings read alike, the source gives them in different places.
Assay: Stability study by HPLC-MS under ambient conditions
Type: physicochemical
From the text: High performance liquid chromatography-mass spectroscopy (HPLC-MS) was used to monitor the degradation of four synthetic compounds over a period of time.

[1] = room temperature, air, water solution, neutral pH, HPLC-MS

Substance	degradation after 7 days (estimated based on UV signal) [1]	degradation after 7 days (estimated based on UV signal)
hPTH(1-37) (SVSEIQLMHNLGKHLNSMERVEWLRKKLQDVHNFVAL)	about 70%	–
[Nle^8,18]hPTH(1-84) [[Nle^8,11]hPTH(1-84)]	–	less than 10%
[Nle^8,18]hPTH(1-37) [[Nle^8,11]hPTH(1-37)]	about 70%	–

From patent publication US20140228293A1, “PARATHYROID HORMONE ANALOGS, COMPOSITIONS AND USES THEREOF” (THE GENERAL HOSPITAL CORPORATION, priority 2011, published 2014)
